“And” between values parts separate entries of the source, which are not always exact repeats. Equal entries are not always repeated. Where two headings read alike, the source gives them in different places.
Tests used:
(α4)3(β2)2 nAChR [1] = biological target: T1, (α4)3(β2)2 nAChR (Homo sapiens, UniProt P17787+P43681); test: Mechanistic (Monod-Wyman-Changeux two-state model) analysis of current responses, WT (α4)3(β2)2 nAChR; assay type: cell-based
T1 construct: expressed in transfected cells; host or cells: Xenopus laevis oocytes injected with cRNA, 8:1 α4:β2
From the text: To gain mechanistic insight into receptor activation in the presence of CMPI, we analyzed the currents in the framework of a cyclic two-state (resting and active) allosteric activation model ([31], [32], [33]). In this model, channel opening is mediated by stabilization of the active state by an agonist that, by definition, has higher affinity to the active than resting state.
We commenced by converting the raw amplitudes of current responses to units of probability of being in the active state (PA units).
(§1) Further analysis of electrophysiological data was conducted in the framework of the two-state concerted transition model, adapted from the MWC cyclic model originally used to describe enzyme function ([31], [32], [33]). The raw peak amplitudes of current responses were converted to units of probability of being in the active state (PA).
(§2) The numbers of α4:β2 and α4:α4 binding sites (Nα4:β2 and Nα4:α4) were constrained to 2 and 1, respectively.
(§3) The concentration-response curve for TC-2559 was fitted to the following equation:(3) PA=1/1+L[1+[TC-2559]/KR,TC-2559,α4:β2/1+[TC-2559]/(KR,TC-2559,α4:β2cTC-2559,α4:β2)]^Nα4:β2
(§4) The concentration-response data were analyzed using Equation 3, with the value of L modified to reflect receptor activation by TC-2559, and the affinity and efficacy terms in the equation reflecting the values for CMPI. The number of binding sites for CMPI in Equation 3 was constrained to 1.
(§5) Curve fitting was done using Origin 2020 (OriginLab Corp). The results are reported as best-fit parameter ±SD of the fit. All data are included in the analysis.

(α4H116A)3(β2)2 nAChR = biological target: T2, (α4H116A)3(β2)2 nAChR (Homo sapiens, UniProt P17787+P43681, H142A); test: Mechanistic (Monod-Wyman-Changeux two-state model) analysis of current responses, (α4H116A)3(β2)2 nAChR; assay type: cell-based; conditions: α4:α4 site; for Kd: read-out: KR,CMPI
T2 construct: expressed in transfected cells; host or cells: Xenopus laevis oocytes injected with cRNA, 8:1 α4:β2
Method: as §1, §2, §3, §4, §5

(α4E66I)3(β2)2 nAChR = biological target: T3, (α4E66I)3(β2)2 nAChR (Homo sapiens, UniProt P17787+P43681, E92I); test: Two-electrode voltage-clamp, oocytes expressing (α4E66I)3(β2)2 nAChR; assay type: cell-based
T3 construct: expressed in transfected cells; host or cells: Xenopus laevis oocytes injected with cRNA, 8:1 α4:β2
Method: (§6) Oocytes-positive female Xenopus laevis were purchased from NASCO, and all procedures were performed according to an animal use protocol approved by the Institutional Animals Care and Use Committee of The University of Texas Health Science Center at Tyler. Ovarian lobules were surgically harvested, treated with collagenase type 2, and Stage V and VI oocytes were visually selected and maintained at 18 °C in modified ND96-gentamicin buffer (96 mM NaCl, 2 mM KCl, 1.8 mM CaCl2, 1 mM MgCl2, 5 mM Hepes, and 50 μg/ml gentamicin, pH 7.6).
(§7) pSP64 Poly(A) plasmids with cDNA encoding for human α4 or β2 nAChR subunit were used to prepare cRNA transcripts suitable for oocyte expression. The plasmids were linearized with AseI (hα4) and PvuII (hβ2), then cRNA transcripts were prepared in vitro using mMESSAGE mMACHINE high yield-capped RNA transcription kits (Ambion, Thermo Fisher Scientific), purified on NucAway Spin column (Invitrogen, Thermo Fisher Scientific), and stored at −80 °C until used. Point mutations within the plasmid encoding the α4 nAChR subunit were introduced using QuikChange II Site-Directed Mutagenesis Kit (Agilent Technologies), as described previously ([28]). To generate amino acid substitutions (K64T, E66I, H116V, H116L, and H116A), two custom-designed complementary oligos containing the desired mutation were used (Integrated DNA Technologies). The forward primers were as the following with the codon for mutated amino acids are underlined and nucleotide(s) changes are bolded and italicized:
(§8) The oocytes were injected with 10 to 50 ng of a cRNA mix containing α4 (WT or mutant) and β2 RNAs at ratios of 8:1(α4:β) or 1:8 (α4:β2) to bias expression toward (α4)3(β2)2 or (α4)2(β2)3 nAChRs, respectively. The injection of oocytes with RNAs mixture containing four folds or higher α4 RNA than β2 RNA have been established to express receptor population that is made up of three α4 and two β2 subunits ([9], [12], [28], [43], [44], [45]).
(§9) 24 to 72 h after cRNA injection, Xenopus oocytes were placed in a custom-made recording chamber that is connected to an eight-channel automated perfusion system (Warner Instruments) and perfused with recording buffer (100 mM NaCl, 2 mM KCl, 1 mM CaCl2, 0.8 mM MgCl2, 1 mM EGTA, and 10 mM Hepes, pH 7.5). Unless otherwise specified in figure legends, each recording run included several drug applications (10 s of an agonist with or without CMPI or NS9283) separated by 3 to 4 min buffer wash intervals. Between recording runs, the oocytes were washed with recording buffer for at last 5 min. […] The currents were digitized using Digidata 1550A (Axon Instruments, Molecular Devices), and the peak currents were quantified using pCLAMP 10 (Axon Instruments), then normalized and analyzed using Excel 2010 (Microsoft) and SigmaPlot 11.0 (Systat Software). […]

(α4)3(β2)2 nAChR [2] = biological target: T1, (α4)3(β2)2 nAChR; conditions: cited from earlier work
(α4K64T)3(β2)2 nAChR = biological target: T4, (α4K64T)3(β2)2 nAChR (Homo sapiens, UniProt P17787+P43681, K90T); test: Two-electrode voltage-clamp, oocytes expressing (α4K64T)3(β2)2 nAChR; assay type: cell-based
T4 construct: expressed in transfected cells; host or cells: Xenopus laevis oocytes injected with cRNA, 8:1 α4:β2
Method: as §6, §7, §8, §9

[3] = background of activity elicited by ACh
[4] = background of activity elicited by TC-2559

T2 sequence (P43681 27-627 H142A): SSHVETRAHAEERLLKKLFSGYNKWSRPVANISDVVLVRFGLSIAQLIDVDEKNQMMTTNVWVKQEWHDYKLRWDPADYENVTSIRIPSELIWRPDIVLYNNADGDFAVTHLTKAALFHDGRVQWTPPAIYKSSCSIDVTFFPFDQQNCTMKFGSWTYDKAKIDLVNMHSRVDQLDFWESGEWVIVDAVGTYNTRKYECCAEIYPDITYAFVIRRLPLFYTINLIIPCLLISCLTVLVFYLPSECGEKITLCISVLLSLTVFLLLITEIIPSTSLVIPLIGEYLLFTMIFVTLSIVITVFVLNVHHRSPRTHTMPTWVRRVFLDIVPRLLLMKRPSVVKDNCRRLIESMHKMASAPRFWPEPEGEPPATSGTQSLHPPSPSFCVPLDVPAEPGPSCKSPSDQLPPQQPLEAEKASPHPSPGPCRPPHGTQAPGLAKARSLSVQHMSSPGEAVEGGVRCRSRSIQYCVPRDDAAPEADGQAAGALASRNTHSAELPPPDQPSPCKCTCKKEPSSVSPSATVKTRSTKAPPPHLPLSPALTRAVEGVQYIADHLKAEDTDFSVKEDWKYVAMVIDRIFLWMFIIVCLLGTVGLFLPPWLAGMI
T2 sequence (P17787 26-502): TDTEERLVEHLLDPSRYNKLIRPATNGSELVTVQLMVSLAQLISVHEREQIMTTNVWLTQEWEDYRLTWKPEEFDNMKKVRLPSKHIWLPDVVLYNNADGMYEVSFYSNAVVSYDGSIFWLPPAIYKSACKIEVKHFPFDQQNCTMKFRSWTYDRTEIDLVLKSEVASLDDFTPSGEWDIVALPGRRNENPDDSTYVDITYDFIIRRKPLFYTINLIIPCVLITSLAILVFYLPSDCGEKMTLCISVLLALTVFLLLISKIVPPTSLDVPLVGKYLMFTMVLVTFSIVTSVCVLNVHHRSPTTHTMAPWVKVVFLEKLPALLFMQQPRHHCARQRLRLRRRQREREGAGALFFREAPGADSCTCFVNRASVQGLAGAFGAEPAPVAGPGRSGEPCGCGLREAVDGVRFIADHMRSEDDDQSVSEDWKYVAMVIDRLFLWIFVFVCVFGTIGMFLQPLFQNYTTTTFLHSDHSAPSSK
T1 sequence (P43681 27-627): as the sequence (P43681 27-627 H142A) above, with A116H counted along it
T1 sequence (P17787 26-502): as the sequence (P17787 26-502) above
T4 sequence (P43681 27-627 K90T): as the sequence (P43681 27-627 H142A) above, with K64T, A116H counted along it
T4 sequence (P17787 26-502): as the sequence (P17787 26-502) above
T3 sequence (P43681 27-627 E92I): as the sequence (P43681 27-627 H142A) above, with E66I, A116H counted along it
T3 sequence (P17787 26-502): as the sequence (P17787 26-502) above

- free energy change toward stabilization of the active state ((α4)3(β2)2 nAChR [1]; CMPI at the α4:α4 interface, from 1 μM TC-2559 background dataset): -1.42 kcal/mol
- ΔGgating ((α4)3(β2)2 nAChR [1]; CMPI at the α4:α4 site, from mean parameters): -1.35 kcal/mol
- cCMPI,α4:α4 ((α4)3(β2)2 nAChR [1]; background of 1 μM TC-2559): 0.090 ± 0.004
- Kd ((α4)3(β2)2 nAChR [1]; background of 1 μM TC-2559, 0.01 to 3 μM CMPI, read-out: KR,CMPI,α4:α4): 170 ± 30 nM
- cCMPI,α4:α4 ((α4)3(β2)2 nAChR [1]; background of 1 μM cytisine): 0.074 ± 0.009
- Kd ((α4)3(β2)2 nAChR [1]; background of 1 μM cytisine, read-out: KR,CMPI,α4:α4): 430 ± 170 nM
- cCMPI,α4:α4 ((α4)3(β2)2 nAChR [1]; background of 1 μM nicotine): 0.065 ± 0.007
- Kd ((α4)3(β2)2 nAChR [1]; background of 1 μM nicotine, read-out: KR,CMPI,α4:α4): 400 ± 100 nM
- cCMPI,α4:α4 ((α4)3(β2)2 nAChR [1]; background of 10 μM ACh): 0.145 ± 0.008
- Kd ((α4)3(β2)2 nAChR [1]; background of 10 μM ACh, read-out: KR,CMPI,α4:α4): 290 ± 60 nM
- cCMPI,α4:α4 ((α4)3(β2)2 nAChR [1]; background of 10 μM TC-2559): 0.129 ± 0.009
- Kd ((α4)3(β2)2 nAChR [1]; background of 10 μM TC-2559, read-out: KR,CMPI,α4:α4): 90 ± 20 nM
- Kd ((α4)3(β2)2 nAChR [1]; five approaches, read-out: KR,CMPI,α4:α4, range of estimates): 90 to 430 nM
- mean cCMPI,α4:α4 ((α4)3(β2)2 nAChR [1]; mean of the five approaches): 0.101 ± 0.035 and 0.101
- Kd ((α4)3(β2)2 nAChR [1]; mean of the five approaches, read-out: mean KR,CMPI,α4:α4): 280 ± 150 nM
- cCMPI ((α4H116A)3(β2)2 nAChR; [3]): 0.082 ± 0.007
- Kd ((α4H116A)3(β2)2 nAChR; [3]): 440 ± 120 nM
- cCMPI ((α4H116A)3(β2)2 nAChR; [4]): 0.099 ± 0.009
- Kd ((α4H116A)3(β2)2 nAChR; [4]): 230 ± 80 nM
- potentiation fold (Ave ± SD), agonist + 1 μM modulator / agonist alone ((α4E66I)3(β2)2 nAChR; ACh (1 mM)): 0.83 ± 0.10
- potentiation fold (Ave ± SD), agonist + 1 μM modulator / agonist alone ((α4E66I)3(β2)2 nAChR; TC 2559 (30 μM)): 0.99 ± 0.15
- potentiation fold (Ave ± SD), agonist + 1 μM modulator / agonist alone ((α4K64T)3(β2)2 nAChR; ACh (1 mM)): 0.91 ± 0.08
- potentiation fold (Ave ± SD), agonist + 1 μM modulator / agonist alone ((α4K64T)3(β2)2 nAChR; TC 2559 (30 μM)): 1.17 ± 0.21
Structure (SMILES): Cc1c(-c2cc(-c3ccccc3Cl)no2)cnn1C1CCNCC1 [CMPI, 3-(2-chlorophenyl)-5-(5-methyl-1-(piperidin-4-yl)-1H-pyrrazol-4-yl)isoxazole]
- left-shift of the ACh concentration-response curve ((α4)3(β2)2 nAChR [2]; CMPI at 1 μM): ~100 fold
- direct activation of the α4β2 receptor ((α4)3(β2)2 nAChR [2]): very weak direct activator
- current responses to EC10 (10 μM) ACh with coapplied CMPI, % of control ((α4)3(β2)2 nAChR [2]; maximal potentiation, 10 μM ACh): 386 ± 15%
- EC50 ((α4)3(β2)2 nAChR [2]; potentiation of 10 μM ACh response): 180 ± 30 nM
